Data on one compound can be found in patent US9029639B2, “Pyridazine compounds for controlling invertebrate pests” (BASF SE, priority 2009, dated 2015).

The subject of this assay is Cowpea aphid (Aphis craccivora). Put plainly: Activity against cowpea aphid (Aphis craccivora), spray on potted cowpea plants. The conditions noted are these: population reduction assessed after 24, 72 and 120 hours, read-out: mortality in comparison with untreated controls. The format is in vivo. The method, then: II.3 Activity Against Cowpea Aphid (Aphis craccivora)
The active compounds were formulated in 50:50 (vol:vol) acetone:water. The test solution was prepared at the day of use.
Potted cowpea plants colonized with 100-150 aphids of various stages were sprayed after the pest population had been recorded. Population reduction was assesed after 24, 72, and 120 hours.

In general, mortality refers to the share of the test organisms that died. Turning to `Cc1nc(C(=O)N(C)c2ccnnc2)cs1` [Compound 5, 2-Methyl-thiazole-4-carboxylic acid methyl-pyridazin-4-yl-amide], the mortality at 300 ppm is not below 90%.
